# System: 327498-153-R-J2-PDC multicell spheroid viability
# Assay: Anticancer human tumor 327498-153-R-J2-PDC patient-derived uterine carcinosarcoma cell line growth inhibition [IpAb]
# Conditions: for IC50: curve of first compound; for viability, T/C: stronger effect = lower value
# From the text: Combinatorial screen of targeted agents with ipatasertib and abemaciclib in multi-cell type tumor spheroids
# A high-throughput screen of multi-cell type tumor spheroids was designed to identify active combinations of targeted small molecules and ipatasertib or abemaciclib. Complex spheroids include a stromal component modeled by human endothelial cells (HUVEC) and fibroblasts modeled by human mesenchymal stem cells (MSCs). The concentration ranges selected for each drug and investigational agent were based upon clinically achievable concentrations if the clinical Cmax of the agent was known.
# Compounds. The drugs and investigational agents: ipatasertib (NSC767898), abemaciclib(NSC768073), selumetinib (NSC741078), trametinib (758246), adavosertib (NSC754352), everolimus (NSC733504), sapanisertib (NSC764658), vemurafenib (NSC761431), venetoclax (NSC766270), copanlisib (NSC809693), apelisib (NSC765974), palbociblib (NSC758247), vemurafenib (NSC761431), dabrafenib (NSC764134), ravoxertinib (NSC781343), BMS-387032 (NSC767048), sotorasib (NSC818433), talazoparib (NSC767125) and afursertib (NSC778305), were obtained from the National Cancer Institute (NCI) Developmental Therapeutics Program Chemical Repository. The FDA-approved anticancer drug set is available from the NCI Developmental Therapeutics Program. […] The stock solutions were prepared in dimethyl sulfoxide (DMSO, Sigma-Aldrich, St. Louis, MO, cat. D2650) at 800-fold the tested concentration and stored at -70 degrees C prior to their use. All drugs and investigational agents were tested over a range starting from a high concentration at or near the clinical Cmax and decreasing in half-log increments. If the clinical Cmax for an agent had not been determined, the highest concentration tested was 10 microM.
# NCI60 Cell Culture. NCI60 cell lines were obtained from the NCI Developmental Therapeutics Program Tumor Repository. For each lot of cells, the Repository performed Applied Biosystems AmpFLSTR Identifiler testing with PCR amplification to confirm consistency with the published Identifier STR profile for each cell line. Cells were kept in continuous culture for no more than 20 passages. The optimal seeding densities for each of the cell lines at each time point assessed were determined prior to performing the concentration response studies. Briefly, the NCI60 human tumor lines were grown as monolayers in RPMI 1640 medium supplemented with 10% FBS and 2 mmol/L L-glutamine.
# An additional 9 lines were from the NCI60 cell line panel including MDA-MB-231 breast carcinoma, MDA-MB-468 breast carcinoma, MCF7 breast carcinoma, Hs578T breast carcinoma, MALME-3M melanoma, SK-MEL-2 melanoma, SK-OV-3 ovarian carcinoma, DU-145 prostate carcinoma, PC-3 prostate carcinoma, all cell lines along with major genetic alterations are listed on Table 2. Pooled donor human umbilical vein endothelial cells (HUVEC, Lonza, cat. CC-2519) and human mesenchymal stem cells (hMSC, Lonza, cat. PT-2501) were purchased from Lonza (Walkersville, MD).
# PDMR cell lines were grown in complete medium (DC medium): Dulbecco's modified Eagle's medium (DMEM)/F12 supplemented with 5% fetal bovine serum (FBS), 2 mM L-glutamine, 100 U/mL penicillin and 100 µg/ml streptomycin, 0.4 µg/ml hydrocortisone, 10 ng/ml epidermal growth factor (EGF) recombinant human protein, 24 µg/mL adenine, and 0.1 mg/mL primocin. During culture from frozen stock vials, PDMR cells were cultured in the same medium containing 10 µM Y-27632 (see Table 3). The PDCs were cultured in complete DMEM/F12 media without 10 microM Y-27632 dihydrochloride for at least two passages prior to the screen. The pooled donor HUVEC and hMSC were cultured in endothelial cell growth medium 2 (PromoCell, Heidelberg, Germany, cat. C-22011) and mesenchymal stem cell growth medium 2 (PromoCell, cat. C-28009), respectively. For all experiments, HUVEC and hMSC were used at passages </=5.
# […]
# [1] = second compound 0.1 µM, first compound 0.0316 µM
# [2] = second compound 0.1 µM, first compound 0.1 µM
# [3] = second compound 0.1 µM, first compound 0.316 µM
# [4] = second compound 0.1 µM, first compound 1 µM
# [5] = second compound 0.1 µM, first compound 3.16 µM
# [6] = second compound 0.1 µM, first compound 10 µM
# [7] = second compound 0.316 µM, first compound 0.0316 µM
# [8] = second compound 0.316 µM, first compound 0.1 µM
# [9] = second compound 0.316 µM, first compound 0.316 µM
# [10] = second compound 0.316 µM, first compound 1 µM
# [11] = second compound 0.316 µM, first compound 3.16 µM
# [12] = second compound 0.316 µM, first compound 10 µM
# [13] = second compound 1 µM, first compound 0.0316 µM
# [14] = second compound 1 µM, first compound 0.1 µM
# [15] = second compound 1 µM, first compound 0.316 µM
# [16] = second compound 1 µM, first compound 1 µM
# [17] = second compound 1 µM, first compound 3.16 µM
# [18] = second compound 1 µM, first compound 10 µM
# 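Further: spheroids exposed to agents for 7 days.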
# 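Wherever viability, T/C is given: 100% = DMSO vehicle control viability.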
Structure (SMILES),IC50 (second compound 0.1 µM) [nM],IC50 (second compound 0.316 µM) [nM],IC50 (second compound 1 µM) [nM],"viability, T/C [1] [%]","viability, T/C [2] [%]","viability, T/C [3] [%]","viability, T/C [4] [%]","viability, T/C [5] [%]","viability, T/C [6] [%]","viability, T/C [7] [%]","viability, T/C [8] [%]","viability, T/C [9] [%]","viability, T/C [10] [%]","viability, T/C [11] [%]","viability, T/C [12] [%]","viability, T/C [13] [%]","viability, T/C [14] [%]","viability, T/C [15] [%]","viability, T/C [16] [%]","viability, T/C [17] [%]",also measured
C=CC(=O)N1CCN(c2nc(=O)n(-c3c(C)ccnc3C(C)C)c3nc(-c4c(O)cccc4F)c(F)cc23)C(C)C1 (stereo not given) + CC(C)NCC(C(=O)N1CCN(c2ncnc3c2C(C)CC3O)CC1)c1ccc(Cl)cc1,219,< 31.6,< 31.6,66.7,55.7,45.3,46.4,43.8,40.8,46.2,36.6,36.8,30.3,30.5,29.1,37.3,25.6,22.4,22.4,21.1,"IC50 (second compound 3.16 µM): < 31.6 nM; IC50 (second compound 10 µM): < 31.6 nM; viability, T/C [18]: 18.9%; viability, T/C (second compound 3.16 µM, first compound 0.0316 µM): 28.9%; viability, T/C (second compound 3.16 µM, first compound 0.1 µM): 19.3%; viability, T/C (second compound 3.16 µM, first compound 0.316 µM): 15.7%; viability, T/C (second compound 3.16 µM, first compound 1 µM): 16.6%; viability, T/C (second compound 3.16 µM, first compound 3.16 µM): 15%; viability, T/C (second compound 3.16 µM, first compound 10 µM): 15.7%; viability, T/C (second compound 10 µM, first compound 0.0316 µM): 15.2%; viability, T/C (second compound 10 µM, first compound 0.1 µM): 14.2%; viability, T/C (second compound 10 µM, first compound 0.316 µM): 14.5%; viability, T/C (second compound 10 µM, first compound 1 µM): 13.3%; viability, T/C (second compound 10 µM, first compound 3.16 µM): 12.1%; viability, T/C (second compound 10 µM, first compound 10 µM): 11.4%"
Cc1nc(NC(=O)N2CCCC2C(N)=O)sc1-c1ccnc(C(C)(C)C(F)(F)F)c1 (stereo not given) + CCN1CCN(Cc2ccc(Nc3ncc(F)c(-c4cc(F)c5nc(C)n(C(C)C)c5c4)n3)nc2)CC1,442,262,150,61.8,58.5,50.4,46,36.9,26,58,57.2,47.8,42.6,35.3,28.1,54,55.7,43.5,41.1,34.8,"IC50 (second compound 0.01 µM): 6390 nM; IC50 (second compound 0.0316 µM): 1040 nM; viability, T/C (second compound 0.01 µM, first compound 0.0316 µM): 91.6%; viability, T/C (second compound 0.01 µM, first compound 0.1 µM): 85.8%; viability, T/C (second compound 0.01 µM, first compound 0.316 µM): 77%; viability, T/C (second compound 0.01 µM, first compound 1 µM): 68.2%; viability, T/C (second compound 0.01 µM, first compound 3.16 µM): 63%; viability, T/C (second compound 0.01 µM, first compound 10 µM): 42.5%; viability, T/C (second compound 0.0316 µM, first compound 0.0316 µM): 69.7%; viability, T/C (second compound 0.0316 µM, first compound 0.1 µM): 69.3%; viability, T/C (second compound 0.0316 µM, first compound 0.316 µM): 63.3%; viability, T/C (second compound 0.0316 µM, first compound 1 µM): 46.4%; viability, T/C (second compound 0.0316 µM, first compound 3.16 µM): 41.3%; viability, T/C (second compound 0.0316 µM, first compound 10 µM): 27.3%; viability, T/C [18]: 25.9%"

# Reference: PubChem BioAssay AID2060341 (Molecular Pharmacology Branch, DTP, NCI, 2025)
